Measurements as given in patent publication US7897602B2, “Indolinone compounds as kinase inhibitors” (Development Center for Biotechnology, priority 2009, dated 2011).

How the values were obtained:
Format in all cases: biochemical
c-Met kinase = molecular target: T1, c-Met kinase (Homo sapiens, UniProt P08581); experiment: c-Met kinase assay (33P incorporation into Poly(Glu-Tyr)); conditions: 500 nM test compound
T1 construct: recombinant N-terminal 6×His-tagged c-Met kinase domain construct expressed from baculovirus; 6xHis (N); made in house
Description: Inhibition of c-Met kinase activity by compounds disclosed herein was quantified by measuring the amount of [^33P] incorporated into the substrate in the presence of a test compound. Briefly, a reaction mixture of 25 μL final volume containing 5 ng of c-Met kinase (obtained by purifying recombinant N-terminal 6×His-tagged c-Met kinase domain construct expressed from baculovirus), 1 μg of the substrate (Poly (Glu-Tyr, 4:1, Sigma)), kinase reaction buffer (20 mM MOPS pH 7.0, 1 mM EDTA, 5% glycerol, 0.01% Brij-35, 0.1% β-mercaptoethanol, 1 mg/mL BSA, 100 μM ATP, 0.1 μCi per well [^33P]-γ-ATP (2,500-3,000 Ci/mmol)), and a test compound (500 nM, diluted with 4% DMSO) or DMSO (as the control) was incubated at 30° C. for 30 minutes. The reaction was stopped by adding 5 μL of 3% phosphoric acid solution. The resultant reaction solution was then harvested onto a filter plate (UniFilter-96 GF/B, PerkinElmer), washed 20 times for 5 min with d.d. H2O, and followed by the addition of 30 μL of MicroScint™-20 Cocktail (PerkinElmer). The plate was then sealed and counted using a TopCount scintillation detector (PerkinElmer). The percentage of inhibition rate of the test compound was calculated by dividing the retained radioactivity of the test sample with the retained radioactivity of the control sample and shown in Table 3.

Aurora B kinase = molecular target: T2, Aurora B kinase (Homo sapiens, UniProt Q96GD4); experiment: Aurora B kinase assay ([γ-33P]ATP, CHOCKtide substrate); conditions: 1.0 μM test compound
T2 construct: purchased Cell signaling
Description: (§1) Inhibition of Aurora Kinase by the compounds disclosed herein was determined by incubating Aurora kinase, substrate, and a test compound together for a period of time followed by quantifying the resultant phosphorylated product. Specifically, in a well of a 96-well round bottom plate, 25 μL of a reaction mixture containing (1) a test compound disclosed herein (diluted from 9 μM to the desired final concentration), [γ-33P]ATP/ATP mix (10 μM), CHOCKtide (1 μg, Genesis Biotech Inc.), and Aurora-A (1 ng, purchased from Upstate); or (2) a test compound disclosed herein (diluted from 9 μM to the desired final concentration), [γ-33P]ATP/ATP mix (40 μM), CHOCKtide (1 μg, Genesis Biotech Inc.), and Aurora-B (2.5 ng, purchased from Cell signaling); was prepared and incubated at 33° C. for 30 minutes. The reaction was then stopped by adding 5 μL of 3% phosphoric acid. The resultant solution (30 μL) was later harvested by a UniFilter Plate GF/B (PerkinElmer) followed by adding 30 μL of the scintillation cocktail (MicroScint 20, PerkinElmer) to the well. The radioactivity retained on the filter membrane was measured by a luminescence counter (PerkinElmer). IC50 value is defined as the concentration of the test compound which achieves a half-maximal inhibition of the kinase activity.

Aurora A kinase = molecular target: T3, Aurora A kinase (Homo sapiens, UniProt O14965); experiment: Aurora A kinase assay ([γ-33P]ATP, CHOCKtide substrate); conditions: for inhibition at 1 µM: 1.0 μM test compound
T3 construct: purchased Upstate
T3 sequence (O14965 1-403): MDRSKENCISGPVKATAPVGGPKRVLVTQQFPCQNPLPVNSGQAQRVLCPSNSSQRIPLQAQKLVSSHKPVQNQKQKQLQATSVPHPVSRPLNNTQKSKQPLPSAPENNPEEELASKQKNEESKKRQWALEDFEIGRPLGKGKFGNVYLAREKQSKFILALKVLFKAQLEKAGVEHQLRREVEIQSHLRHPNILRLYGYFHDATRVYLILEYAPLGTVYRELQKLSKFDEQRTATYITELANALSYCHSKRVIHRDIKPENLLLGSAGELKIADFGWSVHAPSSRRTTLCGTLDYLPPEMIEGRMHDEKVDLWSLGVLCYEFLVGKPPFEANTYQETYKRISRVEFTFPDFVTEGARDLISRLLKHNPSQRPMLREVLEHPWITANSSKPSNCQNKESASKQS
Description: as §1

T2 sequence (Q96GD4 whole entry): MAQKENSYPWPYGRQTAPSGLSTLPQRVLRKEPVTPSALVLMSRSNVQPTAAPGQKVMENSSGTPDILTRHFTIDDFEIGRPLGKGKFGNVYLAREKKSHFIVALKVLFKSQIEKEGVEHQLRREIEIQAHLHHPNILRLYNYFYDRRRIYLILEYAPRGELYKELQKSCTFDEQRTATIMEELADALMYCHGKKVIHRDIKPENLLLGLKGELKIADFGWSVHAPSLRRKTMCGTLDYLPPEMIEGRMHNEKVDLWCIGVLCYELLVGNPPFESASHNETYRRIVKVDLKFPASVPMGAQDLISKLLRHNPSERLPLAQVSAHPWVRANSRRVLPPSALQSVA
T1 sequence (P08581 1078-1345 limits assumed): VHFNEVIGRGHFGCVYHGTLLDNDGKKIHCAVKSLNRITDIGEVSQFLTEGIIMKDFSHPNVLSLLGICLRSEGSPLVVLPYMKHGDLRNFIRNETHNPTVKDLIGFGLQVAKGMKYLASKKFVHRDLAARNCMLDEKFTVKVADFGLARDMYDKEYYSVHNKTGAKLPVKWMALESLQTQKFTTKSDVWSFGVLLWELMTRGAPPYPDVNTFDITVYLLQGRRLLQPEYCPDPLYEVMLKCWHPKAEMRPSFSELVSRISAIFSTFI

SMILES	inhibition at 0.5 µM (c-Met kinase) [%]	inhibition at 1 µM (Aurora B kinase) [%]	inhibition at 1 µM (Aurora A kinase) [%]	IC50 (Aurora A kinase) [nM]
CCOC(=O)CCc1c(/C=C2\C(=O)Nc3ccc(OC)cc32)[nH]c2c1C(=O)CCCC2 [DCB-70154, (Z)-ethyl 3-(2-((5-methoxy-2-oxoindolin-3-ylidene)methyl)-4-oxo-1,4,5,6,7,8-hexahydrocyclohepta[b]pyrrol-3-yl)propanoate]	47.9	2.8	-0.3	–
COc1ccc2c(c1)/C(=C/c1[nH]c3c(c1CCC(=O)O)C(=O)CCCC3)C(=O)N2 [DCB-70155, (Z)-3-(2-((5-methoxy-2-oxoindolin-3-ylidene)methyl)-4-oxo-1,4,5,6,7,8-hexahydrocyclohepta[b]pyrrol-3-yl)propanoic acid]	9.1	10.7	75.6	–
CNC(=O)CCc1c(/C=C2\C(=O)Nc3ccc(S(=O)(=O)Cc4c(Cl)cccc4Cl)cc32)[nH]c2c1C(=O)CCC2 [DCB-70157, (Z)-3-(2-((5-(2,6-dichlorobenzylsulfonyl)-2-oxoindolin-3-ylidene)methyl)-4-oxo-4,5,6,7-tetrahydro-1H-indol-3-yl)-N-methylpropanamide]	85.6	6.9	13	–
CCOC(=O)CCc1c(/C=C2\C(=O)Nc3ccc(S(=O)(=O)Cc4c(Cl)cccc4Cl)cc32)[nH]c2c1C(=O)CC(C)(C)C2 [DCB-70158, (Z)-ethyl 3-(2-((5-(2,6-dichlorobenzylsulfonyl)-2-oxoindolin-3-ylidene)methyl)-6,6-dimethyl-4-oxo-4,5,6,7-tetrahydro-1H-indol-3-yl)propanoate]	85.4	6.1	5.2	–
CC1(C)CC(=O)c2c([nH]c(/C=C3\C(=O)Nc4ccc(S(=O)(=O)Cc5c(Cl)cccc5Cl)cc43)c2CCC(=O)O)C1 [DCB-70159, (Z)-3-(2-((5-(2,6-dichlorobenzylsulfonyl)-2-oxoindolin-3-ylidene)methyl)-6,6-dimethyl-4-oxo-4,5,6,7-tetrahydro-1H-indol-3-yl)propanoic acid]	81.3	-5.5	13.9	–
CCOC(=O)CCc1c(/C=C2\C(=O)Nc3ccc(S(=O)(=O)N4CCc5ccccc54)cc32)[nH]c2c1C(=O)CC(C)(C)C2 [DCB-70160, (Z)-ethyl 3-(2-((5-(indolin-1-ylsulfonyl)-2-oxoindolin-3-ylidene)methyl)-6,6-dimethyl-4-oxo-4,5,6,7-tetrahydro-1H-indol-3-yl)propanoate]	59.1	6.1	5	–
CC1(C)CC(=O)c2c([nH]c(/C=C3\C(=O)Nc4ccc(S(=O)(=O)N5CCc6ccccc65)cc43)c2CCC(=O)O)C1 [DCB-70161, (Z)-3-(2-((5-(indolin-1-ylsulfonyl)-2-oxoindolin-3-ylidene)methyl)-6,6-dimethyl-4-oxo-4,5,6,7-tetrahydro-1H-indol-3-yl)propanoic acid]	59.7	14.6	78.8	–
CCOC(=O)CCc1c(/C=C2\C(=O)Nc3ccc(OC)cc32)[nH]c2c1C(=O)CCC2 [DCB-70166, (Z)-ethyl 3-(2-((5-methoxy-2-oxoindolin-3-ylidene)methyl)-4-oxo-4,5,6,7-tetrahydro-1H-indol-3-yl)propanoate]	21.6	13	48.8	–
COc1ccc2c(c1)/C(=C/c1[nH]c3c(c1CCC(=O)O)C(=O)CCC3)C(=O)N2 [DCB-70167, (Z)-3-(2-((5-methoxy-2-oxoindolin-3-ylidene)methyl)-4-oxo-4,5,6,7-tetrahydro-1H-indol-3-yl)propanoic acid]	11.8	19.8	86.4	134
CCOC(=O)CCc1c(/C=C2\C(=O)Nc3ccc(NS(=O)(=O)c4ccccc4)cc32)[nH]c2c1C(=O)CC(C)(C)C2 [DCB-70168, (Z)-ethyl 3-(6,6-dimethyl-4-oxo-2-((2-oxo-5-(phenylsulfonamido)indolin-3-ylidene)methyl)-4,5,6,7-tetrahydro-1H-indol-3-yl)propanoate]	12.7	30.6	53.4	–
CC1(C)CC(=O)c2c([nH]c(/C=C3\C(=O)Nc4ccc(NS(=O)(=O)c5ccccc5)cc43)c2CCC(=O)O)C1 [DCB-70169, (Z)-3-(6,6-dimethyl-4-oxo-2-((2-oxo-5-(phenylsulfonamido)indolin-3-ylidene)methyl)-4,5,6,7-tetrahydro-1H-indol-3-yl)propanoic acid]	10.8	31	79.6	–
CCCCCCC#Cc1ccc2c(c1)NC(=O)/C2=C\c1[nH]c2c(c1CCC(=O)OCC)C(=O)CCC2 [DCB-70170, (Z)-ethyl 3-(2-((6-(oct-1-ynyl)-2-oxoindolin-3-ylidene)methyl)-4-oxo-4,5,6,7-tetrahydro-1H-indol-3-yl)propanoate]	13.1	2.8	10.5	–
CCCCCCC#Cc1ccc2c(c1)NC(=O)/C2=C\c1[nH]c2c(c1CCC(=O)O)C(=O)CCC2 [DCB-70171, (Z)-3-(2-((6-(oct-1-ynyl)-2-oxoindolin-3-ylidene)methyl)-4-oxo-4,5,6,7-tetrahydro-1H-indol-3-yl)propanoic acid]	18.2	17.4	73	–
CCCCCCC#Cc1ccc2c(c1)/C(=C/c1[nH]c3c(c1CCC(=O)OCC)C(=O)CCC3)C(=O)N2 [DCB-70172, (Z)-ethyl 3-(2-((5-(oct-1-ynyl)-2-oxoindolin-3-ylidene)methyl)-4-oxo-4,5,6,7-tetrahydro-1H-indol-3-yl)propanoate]	10.4	-3.2	-3.1	–
CCCCCCC#Cc1ccc2c(c1)/C(=C/c1[nH]c3c(c1CCC(=O)O)C(=O)CCC3)C(=O)N2 [DCB-70173, (Z)-3-(2-((5-(oct-1-ynyl)-2-oxoindolin-3-ylidene)methyl)-4-oxo-4,5,6,7-tetrahydro-1H-indol-3-yl)propanoic acid]	13.7	-9.8	13.6	–
CCOC(=O)CCc1c(/C=C2\C(=O)Nc3ccc(NC(=O)NC45CC6CC(CC(C6)C4)C5)cc32)[nH]c2c1C(=O)CCC2 [DCB-70174, Ethyl 3-(2-((Z)-(5-(3-(1-adamantanyl)ureido)-2-oxoindolin-3-ylidene)methyl)-4-oxo-4,5,6,7-tetrahydro-1H-indol-3-yl)propanoate]	4	-11.4	2.4	–
CCOC(=O)CCc1c(/C=C2\C(=O)Nc3ccc(NCc4ccc(OC)cc4)cc32)[nH]c2c1C(=O)CCC2 [DCB-70175, (Z)-ethyl 3-(2-((5-(4-methoxybenzylamino)-2-oxoindolin-3-ylidene)methyl)-4-oxo-4,5,6,7-tetrahydro-1H-indol-3-yl)propanoate]	17.3	8.4	30.7	–
CCN(CC)CCNC(=O)CCc1c(/C=C2\C(=O)Nc3ccc(S(=O)(=O)Cc4c(Cl)cccc4Cl)cc32)[nH]c2c1C(=O)CCC2 [DCB-70223, (Z)-3-(2-((5-(2,6-dichlorobenzylsulfonyl)-2-oxoindolin-3-ylidene)methyl)-4-oxo-4,5,6,7-tetrahydro-1H-indol-3-yl)-N-(2-(diethylamino)ethyl)propanamide]	–	43.7	68.5	–
